Tests used:
[1] = tested on: HIV (HTLV-IIIB strain); test: HIV Replication Inhibition Assay; assay type: cell-based; conditions: Human immunodeficiency virus 1, MT4, 96 h, MT-4 cells, cultured four days, MTT, concentration at which cell cytotoxicity by virus is inhibited 50%
Protocol: HIV (HTLV-IIIB strain) persistent infected human T cell strain Molt-4 clone 8 was cultured in 10% Fetal Bovine Serum-containing RPMI-1640 medium and the supernatant was filtered, then the virus titer was measured and the solution was stored at −80° C. Each anti-human immunodeficiency virus active substance was diluted with the above cultured medium to the designated concentration, which was dispensed into 96 well micro plate by 50 μL. Next, a MT-4 cell suspended liquid was dispensed by 100 μL (2.5×10^4 cells), then the above HIV-containing supernatant diluted with the above cultured medium was added thereto by 50 μl (60 pfu (plaque forming unit)).
The obtained mixture was cultured at 37° C. in CO2 incubator for four days, then 3-(4,5-dimethylthiazole-2-yl)-2,5-diphenyltetrazolynium bromide (MTT) 5 mg/mL in PBS was added to each well by 30 μL, followed by 1 hr-cultivation. In this step, as formazan was precipitated by reduction of MTT in living cells, the cell supernatant was removed from all was by 150 μL, then a 150 μL of solution (10% Triton X-100 and 0.4% (v/v)-HCl containing isopropanol) was added thereto, followed by shaking with a plate mixer, to elute formazan. The formazan was measured with a microreader at OD: 560 nm and 690 nm (reference wavelength) and the result was compared with the reference. EC50 means the compound concentration at which cell cytotoxicity by virus is inhibited 50%.

[2] = Solubility Test; assay type: physicochemical; conditions: fassgf or other biorelevant, kinetic from dmso stock; 1% DMSO addition, artificial intestinal juice pH 6.8, 16 hours at 25° C.
Protocol: The solubility of the compound of the present invention was determined under 1% DMSO addition conditions. A 10 mmol/L solution of the compound was prepared with DMSO, and 6 μL of the solution was added to 594 μL of an artificial intestinal juice (: water and a 118 mL solution of 0.2 mol/L NaOH reagent are added to 250 mL of 0.2 mol/L potassium dihydrogen phosphate reagent to reach 1000 mL) with a pH of 6.8. The mixture was left standing for 16 hours at 25° C., and the mixture was vacuum-filtered. The filtrate was two-fold diluted with methanol/water=1/1(v/v), and the compound concentration in the filtrate was measured with HPLC or LC/MS/MS by the absolute calibration method.

[3] = BA Test; assay type: in vivo; conditions: plasma; oral vs intravenous administration, from AUCs, mouse or SD rats
Protocol: Materials and methods for studies an oral absorption (1) Animal: mouse or SD rats are used. (2) Breeding conditions: mouse or SD rats were allowed to freely take solid feed and sterilized tap water. (3) Dose and grouping: orally or intravenously administered at a predetermined dose; grouping is as follows (Dose depends on the compound) Oral administration: 1 to 30 mg/kg (n=2 to 3) Intravenous administration: 0.5 to 10 mg/kg (n=2 to 3) (4) Preparation of dosing solution: for oral administration, in a solution or a suspension state; for intravenous administration, in a solubilized state. (5) Administration method: in oral administration, forcedly administer into ventriculus with oralprobe; in intravenous administration, administer from caudal vein with a needle-equipped syringe. (6) Evaluation items: blood is collected over time, and the plasma concentration of drug is measured by LC/MS/MS. (7) Statistical analysis: regarding the transition of the plasma concentration, the area under the plasma concentration-time curve (AUC) is calculated by non-linear least squares program WinNonlin (Registered trademark), and the bioavailability (BA) is calculated from the AUCs of the oral administration group and intravenous administration group. (Result) Compound No. I-30: 45.2%

[4] = target: T1, human ether-a-go-go related gene (hERG) channel (Homo sapiens, UniProt Q12809); test: hERG Test; assay type: cell-based; conditions: compound concentration 5 μmol/L, HEK293 cells expressing hERG, patch clamp
T1 construct: expressed in transfected cells; host or cells: HEK293
Source text: For the purpose of assessing risk of an electrocardiogram QT interval prolongation, effects on delayed rectifier K+ current (IKr), which plays an important role in the ventricular repolarization process of the compound of the present invention, was studied using HEK293 cells expressing human ether-a-go-go related gene (hERG) channel.
After a cell was retained at a membrane potential of −80 mV by whole cell patch clamp method using an automated patch clamp system (PatchXpress 7000A, Axon Instruments Inc.), IKr induced by depolarization pulse stimulation at +40 mV for 2 seconds and, further, repolarization pulse stimulation at −50 mV for 2 seconds was recorded. […] From the recording IKr, an absolute value of the tail peak current was measured based on the current value at the resting membrane potential using an analysis software (DataXpress ver. 1, Molecular Devices Corporation). Further, the inhibition relative to the tail peak current before application of the test substance was calculated, and compared with the vehicle-applied group (0.1% dimethyl sulfoxide solution) to access influence of the test substance on IKr. […]

T1 sequence (Q12809 whole entry): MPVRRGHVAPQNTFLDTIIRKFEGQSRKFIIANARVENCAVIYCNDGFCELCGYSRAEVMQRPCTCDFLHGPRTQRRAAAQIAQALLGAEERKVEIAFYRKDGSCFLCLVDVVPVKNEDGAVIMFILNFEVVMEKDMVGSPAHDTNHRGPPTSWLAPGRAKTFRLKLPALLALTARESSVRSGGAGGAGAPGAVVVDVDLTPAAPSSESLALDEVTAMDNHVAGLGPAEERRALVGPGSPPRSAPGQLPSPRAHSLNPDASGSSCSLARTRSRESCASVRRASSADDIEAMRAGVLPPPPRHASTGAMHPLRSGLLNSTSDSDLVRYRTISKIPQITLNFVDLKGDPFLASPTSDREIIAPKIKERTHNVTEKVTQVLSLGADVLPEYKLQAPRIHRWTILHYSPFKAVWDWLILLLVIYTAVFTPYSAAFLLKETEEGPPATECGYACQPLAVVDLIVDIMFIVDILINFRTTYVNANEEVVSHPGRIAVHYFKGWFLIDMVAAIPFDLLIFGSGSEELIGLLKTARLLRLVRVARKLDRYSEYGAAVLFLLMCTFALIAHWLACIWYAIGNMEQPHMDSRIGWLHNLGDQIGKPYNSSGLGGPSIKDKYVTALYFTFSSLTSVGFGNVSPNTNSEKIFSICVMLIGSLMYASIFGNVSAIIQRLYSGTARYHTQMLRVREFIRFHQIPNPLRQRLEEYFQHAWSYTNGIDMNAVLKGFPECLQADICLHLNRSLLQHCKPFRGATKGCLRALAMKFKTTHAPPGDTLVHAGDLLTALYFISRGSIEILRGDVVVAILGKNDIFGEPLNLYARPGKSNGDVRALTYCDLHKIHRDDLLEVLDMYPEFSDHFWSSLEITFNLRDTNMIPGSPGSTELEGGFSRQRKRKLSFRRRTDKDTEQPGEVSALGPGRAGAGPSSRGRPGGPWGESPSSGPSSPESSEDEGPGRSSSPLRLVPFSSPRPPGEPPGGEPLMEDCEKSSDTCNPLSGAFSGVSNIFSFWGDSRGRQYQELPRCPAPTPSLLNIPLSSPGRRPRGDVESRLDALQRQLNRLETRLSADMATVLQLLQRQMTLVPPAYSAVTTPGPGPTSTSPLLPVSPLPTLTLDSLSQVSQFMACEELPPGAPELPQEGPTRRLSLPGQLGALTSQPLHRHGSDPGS

Structure (SMILES) | EC50 [1] | other results
CC(=O)N1CCn2c(-c3ccnc(-c4ccc5c(cnn5C)c4)c3)cc3c(-c4ccc(C)cc4)c(C(OC(C)(C)C)C(=O)O)c(C)c1c32 (stereo not shown) [Compound I-012] | 3.7 nM | 
Cc1ccc(-c2c([C@H](OC(C)(C)C)C(=O)O)c(C)c3c4c2cc(-c2ccnc(-c5ccc6c(cnn6C)c5)c2)n4CC(=O)N3)cc1 [Compound I-019] | 6 nM | 
Cc1ccc(-c2c(C(OC(C)(C)C)C(=O)O)c(C)c3c4c2cc(-c2ccnc(Cl)c2)n4CCN3S(C)(=O)=O)cc1 (stereo not shown) [Compound I-010] | 16 nM | 
Cc1ccc(-c2c([C@H](OC(C)(C)C)C(=O)O)c(C)c3c4c2cc(-c2nnc(C)o2)n4CCN3C)cc1 [Compound I-041] | 4.6 nM | 
Cc1ccc(-c2c([C@H](OC(C)(C)C)C(=O)O)c(C)c3c4c2cc(C(=O)N(C)C)n4CCN3C)cc1 [Compound I-040] | 67 nM | 
Cc1c(-c2c(C(OC(C)(C)C)C(=O)O)c(C)c3c4c2c(C)cn4CCN3S(C)(=O)=O)ccc2c1CCCO2 (single isomer, unassigned) [Compound I-006] | 14 nM | 
Cc1ccc(-c2c([C@H](OC(C)(C)C)C(=O)O)c(C)c3c4c2cc(C(N)=O)n4CCN3C)cc1 [Compound I-044] | 44 nM | 
Cc1ccc(-c2c([C@H](OC(C)(C)C)C(=O)O)c(C)c3c4c2cc(-c2ccnc(N5CCN(C(C)C)CC5)c2)n4CCN3S(C)(=O)=O)cc1 [Compound I-017] | 9.1 nM | solubility at 16 h [2]: > 50 µM
Cc1ccc(-c2c([C@H](OC(C)(C)C)C(=O)O)c(C)c3c4c2cc(C(=O)NCc2ccccc2)n4CCN3S(C)(=O)=O)cc1 [Compound I-032] | 5.2 nM | 
Cc1ccc(-c2c([C@H](OC(C)(C)C)C(=O)O)c(C)c3c4c2cc(C(=O)NCCC(C)(C)C)n4CCN3S(C)(=O)=O)cc1 [Compound I-031] | 2.9 nM | 
Cc1ccc(-c2c(C(OC(C)(C)C)C(=O)O)c(C)c3c4c2cc(-c2ccnc(-c5ccc6c(cnn6C)c5)c2)n4CCN3S(C)(=O)=O)cc1 (stereo not shown) [Compound I-008] | 5.9 nM | 
Cc1c(-c2c([C@H](OC(C)(C)C)C(=O)O)c(C)c3c4c2cc(-c2ccnc(-c5ccc6c(cnn6C)c5)c2)n4CCN3S(C)(=O)=O)cc(F)c2c1CCCO2 [Compound I-014] | 1.3 nM | 
Cc1c(-c2c([C@H](OC(C)(C)C)C(=O)O)c(C)c3c4c2cc(-c2ccnc(-c5ccc6c(cnn6C)c5)c2)n4CCN3S(C)(=O)=O)ccc2c1NCCO2 [Compound I-022] | 4 nM | 
Cc1ccc(-c2c([C@H](OC(C)(C)C)C(=O)O)c(C)c3c4c2cc(-c2ccnc(-c5ccc6c(cnn6C)c5)c2)n4CC(=O)N3C)cc1 [Compound I-020] | 3.6 nM | 
CC(=O)N1CCn2c(-c3ccnc(-c4ccc5c(cnn5C)c4)c3)cc3c(-c4ccc5c(c4C)NCCO5)c([C@H](OC(C)(C)C)C(=O)O)c(C)c1c32 [Compound I-027] | 1.7 nM | 
Cc1ccc(-c2c([C@H](OC(C)(C)C)C(=O)O)c(C)c3c4c2cc(-c2ccnc(-c5ccc6c(cnn6C)c5)c2)n4CCN3C)cc1 [Compound I-030] | 1.9 nM | bioavailability [3]: 45.2%; inhibition ratio (IKr tail peak current) [4]: 11.7%

Structure (SMILES) | EC50 [1] | other results
CC(=O)N1CCn2c(-c3ccnc(-c4ccc5c(cnn5C)c4)c3)cc3c(-c4ccc(Cl)cc4)c([C@H](OC(C)(C)C)C(=O)O)c(C)c1c32 [Compound I-028] | 3.3 nM | 
CC(=O)N1CCn2c(-c3ccnc(-c4ccc5c(cnn5C)c4)c3)cc3c(-c4cc(F)c5c(c4C)CCCO5)c([C@H](OC(C)(C)C)C(=O)O)c(C)c1c32 [Compound I-018] | 1.1 nM | 
Cc1ccc(-c2c(C(OC(C)(C)C)C(=O)O)c(C)c3c4c2cc(-c2ccnc(N5CCN(C(C)C)CC5)n2)n4CCN3S(C)(=O)=O)cc1 (stereo not shown) [Compound I-009] | 32 nM | 
Cc1ccc(-c2c([C@H](OC(C)(C)C)C(=O)O)c(C)c3c4c2cc(-c2ccnc(-c5ccc6c(cnn6C)c5)c2)n4CS(=O)(=O)N3C)cc1 [Compound I-029] | 2.4 nM | 
Cc1ccc(-c2c([C@H](OC(C)(C)C)C(=O)O)c(C)c3c4c2cc(-c2nnc(-c5ccc6c(cnn6C)c5)o2)n4CCN3C)cc1 [Compound I-037] | 0.4 nM | 
Cc1ccc(-c2c([C@H](OC(C)(C)C)C(=O)O)c(C)c3c4c2cc(C(=O)N2CCC(c5ccccc5)CC2)n4CCN3S(C)(=O)=O)cc1 [Compound I-024] | 4.2 nM | 
Cc1c([C@H](OC(C)(C)C)C(=O)O)c(-c2ccc(Cl)cc2)c2cc(-c3ccnc(-c4ccc5c(cnn5C)c4)c3)n3c2c1N(S(C)(=O)=O)CC3 [Compound I-016] | 3.9 nM | 
Cc1ccc(-c2c([C@H](OC(C)(C)C)C(=O)O)c(C)c3c4c2cc(-c2ccnc(-c5ccc6c(cnn6C)c5)c2)n4CC(C)N3S(C)(=O)=O)cc1 (stereo partly shown) [Compound I-023] | 0.82 nM | 
Cc1ccc(-c2c([C@H](OC(C)(C)C)C(=O)O)c(C)c3c4c2cc(-c2ccnc(-c5ccc6c(cnn6C)c5)c2)n4CCN3C(=O)CN(C)C)cc1 [Compound I-021] | 3.8 nM | 
Cc1ccc(-c2c([C@H](OC(C)(C)C)C(=O)O)c(C)c3c4c2cc(-c2ccnc(-c5ccc6c(cnn6C)c5)c2)n4CS(=O)(=O)N3)cc1 [Compound I-025] | 89 nM | 
CC(=O)N1CCn2c(-c3ccnc(-c4ccc5c(cnn5C)c4)c3)cc3c(-c4ccc(C)cc4)c([C@H](OC(C)(C)C)C(=O)O)c(C)c1c32 [Compound I-013] | 3.4 nM | 
Cc1c([C@H](OC(C)(C)C)C(=O)O)c(C2=CCC(C)(C)CC2)c2cc(-c3ccnc(-c4ccc5c(cnn5C)c4)c3)n3c2c1N(S(C)(=O)=O)CC3 [Compound I-015] | 4 nM | 
Cc1ccc(-c2c([C@H](OC(C)(C)C)C(=O)O)c(C)c3c4c2cc(C(=O)NCCC(C)(C)C)n4CCN3C)cc1 [Compound I-035] | 5.2 nM | 
CC(=O)N1CCn2c(-c3ccnc(-c4ccc5c(cnn5C)c4)c3)cc3c(C4=CCC(C)(C)CC4)c([C@H](OC(C)(C)C)C(=O)O)c(C)c1c32 [Compound I-026] | 3.7 nM | 
Cc1ccc(-c2c([C@H](OC(C)(C)C)C(=O)O)c(C)c3c4c2cc(-c2ccnc(-c5ccc6c(cnn6C)c5)c2)n4CCN3S(C)(=O)=O)cc1 [Compound I-011] | 2.3 nM | 

Source: US9975906B2, “Tricyclic heterocycle derivatives having HIV replication inhibitory effect” (Shionogi & Co., Ltd., priority 2014, dated 2018)
